Counter-ions that a name gives are not always drawn. Like-named read-outs stand apart in the source and are kept apart here.
Key:
pERK in MKN1 cells = experiment: pERK inhibition, In-Cell Western (LI-COR Odyssey), MKN1 cells; assay type: cell-based; conditions: Homo sapiens
In short: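 IC50 was fitted from % pERK inhibition, calculated as the GAPDH-normalised pERK signal of each well divided by the vehicle mean. Signal was imaged at 700 and 800 nm after fixation, methanol permeabilisation and dual antibody staining. Before fixation, MKN1 cells had received compound for about 0.5–1 h at 37 °C, top concentration 10 µM, nine 3-fold dilutions.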

[1] = target: T1, recombinant human SOS1 polypeptide (amino acids 560-1049) (Homo sapiens, UniProt Q07889); experiment: HTRF displacement assay: inhibition of labeled tracer binding to SOS1
T1 construct: corresponding to amino acids 560-1049, expressed in E. Coli; made in house; host or cells: E. coli
T1 sequence (Q07889 560-1049): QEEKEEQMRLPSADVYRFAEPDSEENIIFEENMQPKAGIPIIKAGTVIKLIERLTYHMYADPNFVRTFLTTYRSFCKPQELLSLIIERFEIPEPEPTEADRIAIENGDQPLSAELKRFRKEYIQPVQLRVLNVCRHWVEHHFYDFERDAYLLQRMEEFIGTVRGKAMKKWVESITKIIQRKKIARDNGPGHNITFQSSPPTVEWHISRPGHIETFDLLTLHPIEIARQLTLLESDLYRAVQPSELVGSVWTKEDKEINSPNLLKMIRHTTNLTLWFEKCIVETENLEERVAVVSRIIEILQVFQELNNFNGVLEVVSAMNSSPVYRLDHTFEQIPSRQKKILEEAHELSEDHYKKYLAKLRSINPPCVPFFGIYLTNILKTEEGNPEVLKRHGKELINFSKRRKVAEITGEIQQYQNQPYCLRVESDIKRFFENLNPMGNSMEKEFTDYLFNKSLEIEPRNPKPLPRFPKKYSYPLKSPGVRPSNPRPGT

[2] = MKN-1, Table B, MKN1 or H358 cells (table does not say which), 0.5-1 hour incubation, read-out: IC50 (nM), pERK inhibition
[3] = Table A, Morrison equation for competitive binding
[4] = MKN-1, Table B1, MKN1 or H358 cells (table does not say which), 0.5-1 hour incubation, read-out: IC50 (nM), pERK inhibition
[5] = Table A1, Morrison equation for competitive binding

Structure (SMILES)	IC50 (pERK in MKN1 cells; [2])	Ki [1, 3]	IC50 (pERK in MKN1 cells; [4])	Ki [1, 5]	IC50 (pERK in MKN1 cells; MKN-1, read-out: IC50 (nM), pERK inhibition)
Cc1nnc(N[C@H](C)c2cccc(C(F)(F)F)c2F)c2cc(N3CCC4(CN(C)C4)C3)ncc12 [Example 1-26, (R)-N-(1-(2-fluoro-3-(trifluoromethyl)phenyl)ethyl)-4-methyl-7-(2-methyl-2,6-diazaspiro[3.4]octan-6-yl)pyrido[3,4-d]pyridazin-1-amine]	30.8 nM	0.348 nM	–	–	–
COCCN(C)c1cc2c(N[C@H](C)c3cccc(C#N)c3C)nnc(C)c2cn1 [Example 1-91, (R)-3-(1-((7-((2-methoxyethyl)(methyl)amino)-4-methylpyrido[3,4-d]pyridazin-1-yl)amino)ethyl)-2-methylbenzonitrile]	225 nM	6.07 nM	–	–	–
Cc1nnc(N[C@H](C)c2cccc(C(C)(F)F)c2F)c2cc(N3CCN(C)CC3)c(F)cc12 [Example 4-16, (R)-N-(1-(3-(1,1-difluoroethyl)-2-fluorophenyl)ethyl)-6-fluoro-4-methyl-7-(4-methylpiperazin-1-yl)phthalazin-1-amine]	52 nM	0.742 nM	–	–	–
CCN1CCN(c2cc3c(N[C@H](C)c4cccc(C#N)c4C)nnc(C)c3cc2F)CC1 [Example 4-1, (R)-3-(1-((7-(4-ethylpiperazin-1-yl)-6-fluoro-4-methylphthalazin-1-yl)amino)ethyl)-2-methylbenzonitrile]	82.7 nM	1.73 nM	–	–	–
CCN1CCC(N(C)c2cc3c(N[C@H](C)c4cccc(C#N)c4C)nnc(C)c3cn2)CC1 [Example 1-43, (R)-3-(1-((7-((1-ethylpiperidin-4-yl)(methyl)amino)-4-methylpyrido[3,4-d]pyridazin-1-yl)amino)ethyl)-2-methylbenzonitrile]	42.2 nM	1.28 nM	–	–	–
COC1(c2cc3c(N[C@H](C)c4cccc(C#N)c4C)nnc(C)c3cc2F)CCOCC1 [Example P-165, (R)-3-(1-((6-fluoro-7-(4-methoxytetrahydro-2H-pyran-4-yl)-4-methylphthalazin-1-yl)amino)ethyl)-2-methylbenzonitrile]	–	–	352 nM	4.66 nM	–
Cc1c(C#N)cccc1[C@@H](C)Nc1nnc(C)c2cnc(N3CCC3)cc12 [Example P-224, (R)-3-(1-((7-(azetidin-1-yl)-4-methylpyrido[3,4-d]pyridazin-1-yl)amino)ethyl)-2-methylbenzonitrile]	–	–	41.4 nM	3.62 nM	–
Cc1c(C#N)cccc1[C@@H](C)Nc1nnc(C)c2cc(F)c(N(C)C3CCN(C)CC3)cc12 [Example 4-3, (R)-3-(1-((6-fluoro-4-methyl-7-(methyl(1-methylpiperidin-4-yl)amino)phthalazin-1-yl)amino)ethyl)-2-methylbenzonitrile]	150 nM	3.34 nM	–	–	–
Cc1nnc(N[C@H](C)c2cccc(C(F)F)c2F)c2cc(N3CCC34CN(CCCF)C4)ncc12 [Example P-226, (R)-N-(1-(3-(difluoromethyl)-2-fluorophenyl)ethyl)-7-(6-(3-fluoropropyl)-1,6-diazaspiro[3.3]heptan-1-yl)-4-methylpyrido[3,4-d]pyridazin-1-amine formic acid salt]	–	–	–	0.288 nM	62.3 nM
Cc1c(C#N)cccc1[C@@H](C)Nc1nnc(C)c2cc(F)c(N3CCC34CN(CCO)C4)cc12 [Example P-219, (R)-3-(1-((6-fluoro-7-(6-(2-hydroxyethyl)-1,6-diazaspiro[3.3]heptan-1-yl)-4-methylphthalazin-1-yl)amino)ethyl)-2-methylbenzonitrile]	–	–	41.1 nM	0.665 nM	–

Reference: patent US20250059182A1, “SOS1 INHIBITORS” (Mirati Therapeutics, Inc., priority 2021, published 2025)
